Columns and labels:
[1] = target: T1, WT GAC (Mus musculus, UniProt D3Z7P3); test: In vitro photo cross linking of SU-22 and purification of the conjugate; assay type: binding; conditions: 100 nM WT GAC, 10 μM SU-22, UV, A350/A280
T1 construct: (residues 72-603) was cloned into a pET23a vector; made in house
T1 sequence (D3Z7P3 72-603 isoform D3Z7P3-2): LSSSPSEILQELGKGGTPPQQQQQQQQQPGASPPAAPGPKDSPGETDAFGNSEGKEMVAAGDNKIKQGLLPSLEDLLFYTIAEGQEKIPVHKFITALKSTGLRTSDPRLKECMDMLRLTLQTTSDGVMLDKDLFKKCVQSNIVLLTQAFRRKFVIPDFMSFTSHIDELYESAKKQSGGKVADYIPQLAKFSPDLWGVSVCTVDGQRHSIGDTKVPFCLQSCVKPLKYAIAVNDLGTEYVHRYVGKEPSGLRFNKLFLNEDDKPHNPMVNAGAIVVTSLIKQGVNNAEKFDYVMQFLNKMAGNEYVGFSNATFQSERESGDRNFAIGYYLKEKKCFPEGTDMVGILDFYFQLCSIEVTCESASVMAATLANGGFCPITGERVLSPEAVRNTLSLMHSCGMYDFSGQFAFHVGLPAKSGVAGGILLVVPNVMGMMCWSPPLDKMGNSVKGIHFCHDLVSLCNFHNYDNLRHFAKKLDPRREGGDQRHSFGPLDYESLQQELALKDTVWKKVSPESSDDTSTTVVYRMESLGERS
Experimental: Conditions of in vitro cross linking of WT GAC, and the K316E/D391K/R459E GAC mutant were adapted for efficient cross linking and purification of the cross linked protein product. WT GAC and the K316E/D391K/R459E GAC mutant, both containing the N-terminal His-tag, were diluted to a concentration of 100 nM in 20 mM Tris-HCl (pH=8.6) 100 mM NaCl, upon which 10 μM of SU-22 was added. Following a preincubation time of 5 minutes, samples were exposed to UV light under a hand held 500 W UV lamp to initiate the photo cross linking. Immediately following, bovine serum albumin (BSA, Sigma) was added to a final concentration of 2 mg/mL to help stabilize the cross linked product and to bind excess un-reacted SU-22. To isolate the cross linked product, 2.5 mg cobalt agarose beads (Clontech) were added and the solution was gravity filtered. […] The purified cross linked protein was then concentrated using spin columns with a 30 kD molecular weight cutoff and quantified using UV-vis spectroscopy, where the protein was quantified using the A280 (ε280=38,850 M−1 cm−1) and the cross-linked SU-22 using the A350 (ε350=18,900 M−1 cm−1). […]

[2] = test system: glutamine metabolism in Dbl-MEFs; test: Metabolic tracing, mass isotopologue distribution with [U-13C]glutamine or [U-13C]glucose; assay type: cell-based, mouse
Experimental: Methods for mass isotopologue distribution analyses using [U-^13C]glutamine or [U-^13C]glucose (Cambridge Isotope Laboratories) were adapted from Cheng et al., “Pyruvate Carboxylase Is Required for Glutamine-Independent Growth of Tumor Cells,” Proc. Natl. Acad. Sci. 108:8674-79 (2011), which is hereby incorporated by reference in its entirety. Briefly, induced (16 hours in complete media without Dox) or non-induced cells (complete media with 1 μg/mL Dox) were plated into 100 mm^2 dishes at a density such that the cells were approximately 60% confluent when adhered, at which point the cells were washed with PBS and grown to 80% confluence in DMEM supplemented with 1% Tet-approved FBS and 8 μM 968/27 for drug treated samples, or 0.8% DMSO for control samples, with or without 1 μg/mL Dox (i.e. overnight). When 80% confluent, cells were then washed with PBS and ^13C-labeling media containing the appropriate drug, DMSO, and Dox concentrations. Media was prepared from glucose- and glutamine-free DMEM powder (Sigma) and supplemented with 1% Tet-approved FBS, 2 mM L[U-^13C]glutamine and 15 mM unlabeled glucose or 15 mM D[U-^13C]glucose and 2 mM unlabeled glutamine (FIGS. 2F-G), together with 1 μg/mL Dox for non-induced samples. For samples containing [U-^13C]glutamine, cells were incubated for 1 hour before extracting metabolites, whereas samples containing [U-^13C]glucose were incubated for 8 hours. Metabolites were extracted by first washing cells twice with ice cold normal saline (0.9% w/v NaCl), followed by addition of 0.5 mL of a 1:1 methanol:water mixture (−20° C.). An internal standard (50 nmol of 2-oxobutyrate) was added and samples were subjected to 3 freeze-thaw cycles, after which macromolecules were separated by centrifugation. The supernatant was evaporated completely and remaining metabolites silylated in 100 μL of a trimethylsilyl donor (Tri-Sil, Thermo) for 30 minutes at 42° C. Metabolites were subjected to GC-MS analysis using an Agilent 6970 gas chromatograph networked to an Agilent 5973 mass selective detector. Metabolites were identified and isotope enrichment calculated as described by Cheng et al., “Pyruvate Carboxylase Is Required for Glutamine-Independent Growth of Tumor Cells,” Proc. Natl. Acad. Sci. 108:8674-79 (2011), which is hereby incorporated by reference in its entirety.

[3] = 8 μM, non-induced and induced cells

**Q.** How did the “ratio of cross linked SU-22 to protein” value [1] turn out when `CC1(C)CC(=O)C2=C(C1)c1c(ccc3cc4ccccc4cc13)NC2c1ccc(N=[N+]=[N-])cc1` (centres unmarked) [SU-22] was run?
**A.** Its value is 0.52.

**Q.** Which “glucose labeling of citrate isotopologues (M+2)” value ([2]; 8 μM overnight, 8 hour [U-13C]glucose) does the source give for `CN(C)c1ccc(C2Nc3ccc4ccccc4c3C3=C2C(=O)CC(C)(C)C3)cc1Br` (centres unmarked) [Compound 968] here?
**A.** Its value is “inhibit”.

**Q.** And the glutamate pool sizes [2, 3]?
**A.** Its glutamate pool sizes is “modest decrease”.

**Q.** And the “pool sizes of fumarate, malate, and citrate” value [2, 3]?
**A.** Its value is “no effect”.

**Q.** And the “glutamine-derived 13C isotopic enrichment within TCA cycle intermediates” value ([2]; Dbl-expressing cells, 8 μM overnight, 1 hour [U-13C]glutamine)?
**A.** The value was “significant reductions”.

Reference: patent US10526322B2, “Inhibitors of kidney-type glutaminase, GLS-1” (CORNELL UNIVERSITY, priority 2014, dated 2020)
